From patent US6673827B1, “Methods of treating fungal infections with inhibitors of NAD synthetase enzyme” (priority 1999, dated 2004)
pIC50: −log10 of the molar value. ≈ marks a conversion by molar mass, not a printed value. Where two headings read alike, the source gives them in different places.

Legend:
[1] = target: T1, NAD synthetase (recombinant protein from B. subtilis; purified) (Bacillus subtilis, UniProt P08164); assay: NAD synthetase enzyme inhibition assay (coupled enzymatic assay, HTS); type: biochemical; conditions: IC50 (μg/mL) for Inhibit. of NAD Synthetase, table of structures used in the yeast assay (Example 4)
T1 construct: made in house
T1 sequence (P08164 whole entry): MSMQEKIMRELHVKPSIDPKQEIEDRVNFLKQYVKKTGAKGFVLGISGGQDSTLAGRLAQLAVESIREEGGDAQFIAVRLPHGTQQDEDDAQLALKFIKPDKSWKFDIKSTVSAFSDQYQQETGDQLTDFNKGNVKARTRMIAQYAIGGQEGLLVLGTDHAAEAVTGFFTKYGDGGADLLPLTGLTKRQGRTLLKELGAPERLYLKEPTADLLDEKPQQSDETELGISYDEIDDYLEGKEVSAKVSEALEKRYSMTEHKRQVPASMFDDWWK
Method: NAD Synthetase Enzyme Inhibition Assay-Determination of Test Compound Concentrations Providing 50% Inhibition ([…]) of the Maximum Enzyme Rate
The potential inhibitory activity of the synthetic compounds was determined by the use of a coupled enzymatic assay. The coupled assay involves two steps as summarized below. [drawing 98]
The measurement of inhibitory activities of the test compounds was facilitated by the use of a high through-put screening system (HTS system). The HTS system utilizes an integrated Sagian 2M ORCA robotic system coordinating the functions of a Beckman Biomek 2000 liquid handler and a Molecular Devices SpectraMax Plus spectrophotometer. The 2M ORCA robotic station is responsible for the movement of all hardware and the integration of multiple stations on the worksurface. The Biomek 2000 is programmed to perform all phases of liquid dispensing and mixing. The SpectraMax Plus spectrophotometer is equipped to monitor absorbance in a 96-well plate format.
The Biomek 2000 mixes these components utilizing a predefined mixing program. […] The reaction is monitored by measuring the increase in absorbance at 340 nm (NADH). The linear portion of the reaction is monitored for 180 sec. The initial velocity is determined using Softmax Pro, the software supplied with the Molecular Devices SpectrMax Plus spectrophotometer.
The test compounds were supplied as a stock solution with a concentration of 50 mM dissolved in 100% dimethyl sulfoxide (DMSO). An initial screen was conducted on all compounds using a 2 or 3 concentration screen. The 2 panel screen used concentrations of 0.2 mM and 0.1 mM for the compounds. The 3 panel screen used concentrations of 0.2 mM, 0.1 mM, and 0.05 mM. […] The IC50 values for each compound were determined graphically from a plot of % inhibition versus […].

[2] = test system: Candida tropicalis ATCC 750; assay: In vitro study of inhibition of growth and lethality against yeast (MIC/MLC susceptibility test), isolate A; type: cell-based; conditions: Candida tropicalis, 2nd pair of lines, isolate assigned by line order; for MFC: ATCC750, read-out: Minimum Lethal Conc. (MLC)
[3] = test system: Candida tropicalis ATCC 28707; assay: In vitro study of inhibition of growth and lethality against yeast (MIC/MLC susceptibility test), isolate B; type: cell-based; conditions: Candida tropicalis, 1st pair of lines, isolate assigned by line order; for MFC: ATCC28707, read-out: Minimum Lethal Conc. (MLC)
[4] = test system: Candida albicans KJP-000531594; assay: In vitro study of inhibition of growth and lethality against yeast (MIC/MLC susceptibility test), isolate C; type: cell-based; conditions: Candida albicans, Candida albicans, 1st pair of lines; for MFC: KJP000531594, read-out: Minimum Lethal Conc. (MLC)
[5] = test system: Candida albicans LH-000664533; assay: In vitro study of inhibition of growth and lethality against yeast (MIC/MLC susceptibility test), isolate D; type: cell-based; conditions: Candida albicans, Candida albicans, 2nd pair of lines, isolate assigned by line order; for MFC: LH000664533, read-out: Minimum Lethal Conc. (MLC)
[6] = test system: Torulopsis glabrata JHC-BC9951635; assay: In vitro study of inhibition of growth and lethality against yeast (MIC/MLC susceptibility test), isolate E; type: cell-based; conditions: Torulopsis glabrata, 2nd pair of lines, isolate assigned by line order; for MIC / MFC: Nakaseomyces glabratus; for MFC: JHCBC9951635, read-out: Minimum Lethal Conc. (MLC)
[7] = test system: Torulopsis glabrata ERH-BC9938274; assay: In vitro study of inhibition of growth and lethality against yeast (MIC/MLC susceptibility test), isolate F; type: cell-based; conditions: Torulopsis glabrata, 1st pair of lines, isolate assigned by line order; for MIC / MFC: Nakaseomyces glabratus; for MFC: ERHBC9938274, read-out: Minimum Lethal Conc. (MLC)
[8] = test system: Cryptococcus neoformans DLB-1027594CNC; assay: In vitro study of inhibition of growth and lethality against yeast (MIC/MLC susceptibility test), isolate G; type: cell-based; conditions: Cryptococcus neoformans, 1st pair of lines, isolate assigned by line order; for MIC / MFC: DLB1027594CNC; for MFC: read-out: Minimum Lethal Conc. (MLC)
[9] = test system: Cryptococcus neoformans SLP-BC0012854; assay: In vitro study of inhibition of growth and lethality against yeast (MIC/MLC susceptibility test), isolate H; type: cell-based; conditions: Cryptococcus neoformans, 2nd pair of lines, isolate assigned by line order; for MFC: SLPBC0012854, read-out: Minimum Lethal Conc. (MLC)
[10] = ATCC750, 24 h, read at 24 hr, read-out: Minimum Inhibitory Conc. (MIC), 24 hr.
[11] = ATCC750, 48 h, read at 48 hr, read-out: Minimum Inhibitory Conc. (MIC), 48 hr.
[12] = ATCC28707, 24 h, read at 24 hr, read-out: Minimum Inhibitory Conc. (MIC), 24 hr.
[13] = ATCC28707, 48 h, read at 48 hr, read-out: Minimum Inhibitory Conc. (MIC), 48 hr.
[14] = KJP000531594, 24 h, read at 24 hr, isolate not given, assigned by line order and MLC of Table 4B, read-out: Minimum Inhibitory Conc. (MIC), 24 hr.
[15] = KJP000531594, 48 h, read at 48 hr, isolate assigned by line order, read-out: Minimum Inhibitory Conc. (MIC), 48 hr.
[16] = LH000664533, 24 h, read at 24 hr, read-out: Minimum Inhibitory Conc. (MIC), 24 hr.
[17] = LH000664533, 48 h, read at 48 hr, read-out: Minimum Inhibitory Conc. (MIC), 48 hr.
[18] = JHCBC9951635, 24 h, read at 24 hr, read-out: Minimum Inhibitory Conc. (MIC), 24 hr.
[19] = JHCBC9951635, 48 h, read at 48 hr, read-out: Minimum Inhibitory Conc. (MIC), 48 hr.
[20] = ERHBC9938274, 24 h, read at 24 hr, read-out: Minimum Inhibitory Conc. (MIC), 24 hr.
[21] = ERHBC9938274, 48 h, read at 48 hr, read-out: Minimum Inhibitory Conc. (MIC), 48 hr.
[22] = 72 h, read at 72 hr, read-out: Minimum Inhibitory Conc. (MIC), 72 hr.
[23] = SLPBC0012854, 48 h, read at 48 hr, read-out: Minimum Inhibitory Conc. (MIC), 48 hr.
[24] = SLPBC0012854, 72 h, read at 72 hr, read-out: Minimum Inhibitory Conc. (MIC), 72 hr.
[25] = 48 h, read at 48 hr, read-out: Minimum Inhibitory Conc. (MIC), 48 hr.

Compound	pIC50 [1]	MFC [2] [µg/mL]	MIC [2, 10] [µg/mL]	MIC [2, 11] [µg/mL]	MFC [3] [µg/mL]	MIC [3, 12] [µg/mL]	MIC [3, 13] [µg/mL]	MIC [4, 14] [µg/mL]	MIC [4, 15] [µg/mL]	MFC ([4]; isolate assigned by line order) [µg/mL]	MIC [5, 16] [µg/mL]	MIC [5, 17] [µg/mL]	MFC [5] [µg/mL]	MIC [6, 18] [µg/mL]	MIC [6, 19] [µg/mL]	MFC [6] [µg/mL]	MIC [7, 20] [µg/mL]	MIC [7, 21] [µg/mL]	MFC [7] [µg/mL]	MIC [8, 22] [µg/mL]	other results
COC(=O)c1cc2cc(OCc3ccccc3)ccc2n1CCCCCCCOC(=O)c1ccc(CN(C)C)cc1 [Compound 1096]	3.75	> 32	> 32	> 32	16 (≈ 28.7 µM)	4 (≈ 7.19 µM)	8 (≈ 14.4 µM)	> 32	> 32	> 32	> 32	> 32	> 32	> 32	> 32	> 32	> 32	> 32	> 32	> 32	Minimum Inhibitory Conc. (MIC), 24 hr. ([3]; read at 24 hr): 2 µg/mL; Minimum Inhibitory Conc. (MIC), 48 hr. ([3]; read at 48 hr): 16 µg/mL; Minimum Inhibitory Conc. (MIC), 72 hr. ([8]; read at 72 hr): 16 µg/mL; MFC [8]: > 32 µg/mL; Minimum Inhibitory Conc. (MIC), 48 hr. ([9]; read at 48 hr): 32 µg/mL; Minimum Inhibitory Conc. (MIC), 72 hr. ([9]; read at 72 hr): 32 µg/mL; MIC [9, 23]: > 32 µg/mL; MIC [9, 24]: > 32 µg/mL; MFC [9]: > 32 µg/mL
COC(=O)c1cc2ccccc2[n+](C)c1-c1c[nH]c2ccccc12.[I-] [Compound 1500]	< 3.35	> 32	32	> 32	8	4	8	32	> 32	> 32	32	> 32	> 32	32	> 32	> 32	32	> 32	> 32	32	Minimum Inhibitory Conc. (MIC), 24 hr. ([2]; read at 24 hr): >32 µg/mL; Minimum Inhibitory Conc. (MIC), 24 hr. ([4]; read at 24 hr, isolate not given, assigned by line order and MLC of Table 4B): >32 µg/mL; Minimum Inhibitory Conc. (MIC), 24 hr. ([5]; read at 24 hr): >32 µg/mL; Minimum Inhibitory Conc. (MIC), 24 hr. ([6]; read at 24 hr): >32 µg/mL; Minimum Inhibitory Conc. (MIC), 24 hr. ([7]; read at 24 hr): >32 µg/mL; Minimum Inhibitory Conc. (MIC), 72 hr. ([8]; read at 72 hr): >32 µg/mL; MIC [8, 25]: 32 µg/mL; MFC [8]: > 32 µg/mL; Minimum Inhibitory Conc. (MIC), 72 hr. ([9]; read at 72 hr): >32 µg/mL; MIC [9, 23]: 32 µg/mL; MIC [9, 24]: 32 µg/mL; MFC [9]: > 32 µg/mL
C[N+](C)(C)c1ccc(CCCC(=O)OCCCCCCCCOc2ccc(OCc3ccccc3)cc2)cc1.[I-] [Compound 1200]	4.28	1	2	2	1	1	1	2	2	2	2	2	2	1	1	1	1	2	2	2	Minimum Inhibitory Conc. (MIC), 24 hr. ([2]; read at 24 hr): 1 µg/mL; Minimum Inhibitory Conc. (MIC), 48 hr. ([2]; read at 48 hr): 1 µg/mL; MIC [8, 25]: 2 µg/mL; MFC [8]: 4 µg/mL; MIC [9, 23]: 2 µg/mL; MIC [9, 24]: 2 µg/mL; MFC [9]: 4 µg/mL
C[N+](C)(C)C(Cc1ccccc1)C(=O)OCCCCCCCCOc1ccc(OCc2ccccc2)cc1.[I-] (centres unmarked) [Compound 1230]	4.51	1	1	1	1	0.5	0.5	1	2	2	2	4	2	1	2	2	2	2	2	1	Minimum Inhibitory Conc. (MIC), 24 hr. ([5]; read at 24 hr): 1 µg/mL; Minimum Inhibitory Conc. (MIC), 48 hr. ([5]; read at 48 hr): 2 µg/mL; Minimum Inhibitory Conc. (MIC), 24 hr. ([6]; read at 24 hr): 2 µg/mL; Minimum Inhibitory Conc. (MIC), 48 hr. ([8]; read at 48 hr): 0.5 µg/mL; Minimum Inhibitory Conc. (MIC), 72 hr. ([8]; read at 72 hr): 2 µg/mL; MIC [8, 25]: 1 µg/mL; MFC [8]: 4 µg/mL; Minimum Inhibitory Conc. (MIC), 72 hr. ([9]; read at 72 hr): 2 µg/mL; MIC [9, 23]: 1 µg/mL; MIC [9, 24]: 1 µg/mL; MFC [9]: 4 µg/mL
